Patent US20250177582A1, “HIGH-AFFINITY LIGANDS OF FIBROBLAST ACTIVATION PROTEIN FOR TARGETED DELIVERY APPLICATIONS” (PHILOCHEM AG, priority 2022, published 2025)
“Also recorded” adds a separate entry of the source. Read-outs that look alike come from different tables or passages of the source.

Tests used:
human FAP = human FAP (Homo sapiens (Human), UniProt Q12884); experiment: Inhibition assay of FAP (fluorogenic substrate Z-Gly-Pro-AMC); format: biochemical; conditions: for FAP binding relative to the parent compound (in words): effect of arginine-based tail / of removing furan as group W; for FAP inhibition potency (in words): SAR comparison
Sequence of human FAP (Q12884 whole entry): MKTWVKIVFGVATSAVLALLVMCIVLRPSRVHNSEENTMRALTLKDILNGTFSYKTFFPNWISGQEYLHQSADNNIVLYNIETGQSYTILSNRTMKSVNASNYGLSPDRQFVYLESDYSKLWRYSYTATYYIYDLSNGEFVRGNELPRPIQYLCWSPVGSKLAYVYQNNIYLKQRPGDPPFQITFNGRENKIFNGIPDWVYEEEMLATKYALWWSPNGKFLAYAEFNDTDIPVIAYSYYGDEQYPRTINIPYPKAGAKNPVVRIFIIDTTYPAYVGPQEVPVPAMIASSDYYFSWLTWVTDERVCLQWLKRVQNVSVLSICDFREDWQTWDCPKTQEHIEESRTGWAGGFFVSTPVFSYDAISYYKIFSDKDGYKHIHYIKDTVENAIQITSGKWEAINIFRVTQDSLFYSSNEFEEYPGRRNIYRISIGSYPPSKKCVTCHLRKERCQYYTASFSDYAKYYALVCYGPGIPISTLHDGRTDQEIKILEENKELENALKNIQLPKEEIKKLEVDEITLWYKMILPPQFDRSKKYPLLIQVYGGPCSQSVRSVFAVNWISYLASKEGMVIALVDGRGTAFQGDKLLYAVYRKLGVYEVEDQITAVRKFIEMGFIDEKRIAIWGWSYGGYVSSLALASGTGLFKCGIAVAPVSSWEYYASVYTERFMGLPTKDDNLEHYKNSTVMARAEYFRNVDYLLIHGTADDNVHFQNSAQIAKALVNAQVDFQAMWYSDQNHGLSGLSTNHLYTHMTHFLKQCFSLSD
Method: (§1) Inhibition assay of FAP. The compounds were precisely weighed (range between […]) on a micro-scale (HuberLab, Sartorius QUINTIX35-1S) and dissolved in DMSO to prepare stock solutions at 1 mM. Stock solutions were further diluted with FAP activation buffer (50 mM Tris, 100 mM NaCl, 1 mM EDTA, pH=7.4) to a final DMSO concentration of 10% v/v. 10 μL of each inhibitor were serially diluted in a 384 well plate (grenier-bio one, PS, F-bottom, Black, non-binding) with 10 μL of 10% DMSO FAP buffer (1:1 dilution). FAP (human and murine) was diluted to the desired concentration with FAP activation buffer and added to the serial dilution of inhibitor (10 μL for each well). Each protein-inhibitor solution was incubated for 30 minutes at room temperature. Each measurement was performed with an enzyme concentration (FAP) lower than the expected IC50. A 60 μM solution of substrate (Z-Gly-Pro-AMC) in FAP activation buffer (<1% DMSO) was added to the plate (10 μL for each well). The reaction was incubated from 1 minute to 48 hours (see FIG. 2) at room temperature (22° C.-25° C.). The emission was read at 465 nm (excitation wavelength 360 nm) for 40 μs by Tecan Spark (s.n. 1808004082). The following controls were added to each row: positive control (no inhibitor control, 10 μL of 10% DMSO FAP buffer+10 μL of FAP solution+10 μL of substrate solution), negative control (no protein control, 10 μL of 10% DMSO FAP buffer+10 μL of FAP activation buffer+10 μL of substrate solution).
(§2) Normalization of values: The “% of FAP activity” can be calculated with the following formula:
The concentration of substrate (Z-Gly-Pro-AMC) was kept constant=20 μM. Dashed lines corresponds to sets of data with unstable fitting. […] Error bars display SEM.
(§3) FIG. 3: Inhibition assay performed with compounds 1, 2, 3, 4, 5, 6, 8 against a) 66 pM human FAP and b) 66 pM murine FAP. The concentration of substrate (Z-Gly-Pro-AMC) was kept constant=20 μM. The assay was incubated for 48 hours at 22.6° C. Error bars display SEM.
(§4) FIG. 4: a) Inhibition assay performed with compounds 8, 9 and 10 against 66 pM human FAP. The assay was incubated for 17 hours at 25° C. b) Inhibition assay performed with compound 9 against 66 pM murine FAP. The assay was incubated for 17 hours at 25° C. In both assays the concentration of substrate (Z-Gly-Pro-AMC) was kept constant=20 μM. Error bars display SEM.
FIG. 19. A: Chemical structures and corresponding IC50(hFAP) values of compounds according to the present invention. B: Chemical structures and corresponding IC50 values of compounds where the propargyl moiety at position AA^2 was replaced by different groups (Me, iPr, Bn) using both R and S stereoisomers. The sites of modification have been highlighted with arrows. Each measurement was performed with a FAP concentration lower than the expected IC50. Depending on FAP concentration, the fluorescence was measured between 10 minutes and 48 h (at room temperature) after the addition of the fluorogenic substrate (Z-Gly-Pro-AMC). IC50 values and standard errors were calculated using “[Inhibitor] vs. response—Variable slope (four parameters)” fitting (Graphpad Prism). […] By introducing the quinoline-based moiety, a single-digit nanomolar inhibitor was obtained. […] The replacement of propargylglycine with S-phenylalanine improved potency of the lead compound of additional ˜2-folds (compound 14).

murine FAP = murine FAP (Mus musculus (Mouse), UniProt P97321); experiment: as above; format: biochemical; conditions: substrate Z-Gly-Pro-AMC 20 μM; 66 pM murine FAP; room temperature
Sequence of murine FAP (P97321 whole entry): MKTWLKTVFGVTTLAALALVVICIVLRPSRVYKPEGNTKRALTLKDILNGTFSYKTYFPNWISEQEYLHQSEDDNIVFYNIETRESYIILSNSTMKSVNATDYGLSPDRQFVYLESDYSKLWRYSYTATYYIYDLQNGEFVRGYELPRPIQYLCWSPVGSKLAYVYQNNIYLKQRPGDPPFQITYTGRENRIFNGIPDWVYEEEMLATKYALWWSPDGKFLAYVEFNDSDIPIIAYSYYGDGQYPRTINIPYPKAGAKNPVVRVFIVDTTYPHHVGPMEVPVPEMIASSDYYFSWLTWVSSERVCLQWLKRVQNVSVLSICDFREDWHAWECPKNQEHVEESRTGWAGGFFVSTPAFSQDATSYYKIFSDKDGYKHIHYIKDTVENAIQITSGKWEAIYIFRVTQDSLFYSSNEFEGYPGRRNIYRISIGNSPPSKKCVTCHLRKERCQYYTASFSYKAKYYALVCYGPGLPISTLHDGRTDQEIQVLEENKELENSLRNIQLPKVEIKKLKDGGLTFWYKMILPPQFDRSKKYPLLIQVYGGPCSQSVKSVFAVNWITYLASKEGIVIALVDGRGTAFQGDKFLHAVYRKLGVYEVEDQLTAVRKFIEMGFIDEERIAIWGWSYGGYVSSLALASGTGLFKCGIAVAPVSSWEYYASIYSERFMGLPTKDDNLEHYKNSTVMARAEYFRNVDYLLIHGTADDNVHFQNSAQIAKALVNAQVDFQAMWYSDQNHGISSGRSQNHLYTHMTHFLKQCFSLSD
Method: as §1, §2, §3, §4

FAP negative SKRC-52.wt = experiment: Flow cytometry (FACS) binding; format: cell-based; conditions: 100 nM; 1 h on ice
Method: (§5) Cells were detached from culture plates using Accutase cell detachment solution, counted and suspended to a final concentration of 1.25×10≢cell/100 μL in a solution of FACS buffer (1% bovine serum albumin, 2 mM EDTA, in 500 mL PBS pH 7.4). Aliquots of 2.5×10≡cells (200 μL) were spun down and resuspended in solutions of compound 36 and compound 29 (100 μL; 100 nM) in FACS buffer and incubated on ice in the dark for 1 h. Cells were washed once with 200 μl FACS (1% v/v)/PBS (pH=7.4), spun down, resuspended in a solution of FACS buffer and analyzed via a BD LSRFortessa™ Cell Analyzer (Biosciences). FlowJo Version 8.7 (Treestar) was used for the data analysis and visualization.

[1] = tested on: FAP positive SKRC-52.hFAP; experiment: Flow cytometry (FACS) binding; format: cell-based; conditions: 100 nM; 1 h on ice
Method: as §5

SK-RC-52.hFAP cells = experiment: Confocal microscopy on living cells; format: cell-based; conditions: 150 nM; imaged 1 h after incubation
Method: SK—RC-52.hFAP and SK—RC-52.wt cells were seeded into g-Slide 8 Well high Glass Bottom at a density of 5×10^4 cells per well in 300 μL of RPMI medium supplemented with 10% fetal calf serum (FCS), AA, and Hepes (10 mM) and allowed to grow overnight under standard culture conditions. Hoechst 33342 nuclear dye was used to stain nuclear structures. The culture medium was replaced with fresh medium containing either compound 36 or 29 (150 nM). Randomly selected colonies were imaged 1 h after incubation on the confocal microscope Zeiss LSM 880 airyscan (Zeiss). Fiji was used for the data processing and visualization.

[2] = substrate Z-Gly-Pro-AMC 20 μM, FAP concentration lower than expected IC50 (66 pM in FIG. 3, 4), room temperature, read-out: IC50 vs human FAP

SMILES: N#C[C@@H]1CC(F)(F)CN1C(=O)CCC(=O)O [Compound 1]
- IC50 (human FAP; [2]): 249000 nM
- IC50 (murine FAP): 200000 nM

SMILES: C#CC[C@@H](NC(=O)[C@H](CCCNC(=N)N(C)C)NC(=O)c1coc(CNC(=O)CCC(=O)N2CC(F)(F)C[C@H]2C#N)c1)C(=O)N[C@@H](CCCCN)C(=O)O [Compound 3]
- IC50 (human FAP; [2]): 60 nM
- IC50 (murine FAP): 38.4 nM

SMILES: CN(C)C(=N)NCCC[C@H](NC(=O)c1coc(CNC(=O)CCC(=O)N2CC(F)(F)C[C@H]2C#N)c1)C(=O)N[C@@H](CCCCN)C(=O)O [Compound 4]
- FAP binding relative to the parent compound (in words) (human FAP): significant improvement
- IC50 (human FAP; [2]): 178 nM
- IC50 (murine FAP): 154 nM

SMILES: C#CC[C@H](NC(=O)c1coc(CNC(=O)CCC(=O)N2CC(F)(F)C[C@H]2C#N)c1)C(=O)N[C@@H](CCCCN)C(=O)O [Compound 5]
- IC50 (murine FAP): 3900 nM

SMILES: C#CC[C@H](NC(=O)CCC(=O)N1CC(F)(F)C[C@H]1C#N)C(=O)N[C@@H](CCCCN)C(=O)O [Compound 6]
- FAP binding relative to the parent compound (in words) (human FAP): worsening
- IC50 (human FAP; [2]): 17200 nM
- IC50 (murine FAP): 22700 nM

SMILES: N#C[C@@H]1CC(F)(F)CN1C(=O)CNC(=O)c1ccnc2c(NC(=O)CCC(=O)O)cccc12 [Compound 8, (S)-4-((4-((2-(2-cyano-4,4-difluoropyrrolidin-1-yl)-2-oxoethyl)carbamoyl)quinolin-8-yl)amino)-4-oxobutanoic acid, reference compound]
- IC50 (human FAP; 22.6° C., [hFAP] 2.5 nM to 39 pM, substrate 20 μM, read-out: IC50 values from fitted curves, inhibition assay performed overtime): 6 to 21 nM
- IC50 (human FAP; [2]): 10.9 nM
- IC50 (murine FAP): 16.1 nM

SMILES: C#CC[C@H](NC(=O)[C@H](CCCNC(=N)N(C)C)NC(=O)CCC(=O)Nc1cccc2c(C(=O)NCC(=O)N3CC(F)(F)C[C@H]3C#N)ccnc12)C(=O)N[C@@H](CCCCN)C(=O)O [Compound 9]
- FAP inhibition potency (in words) (human FAP): sub-nanomolar range; also recorded: increased strongly
- IC50 (human FAP; [2]): 0.439 nM
- IC50 (murine FAP): 0.115 nM

SMILES: C#CC[C@H](NC(=O)CCC(=O)Nc1cccc2c(C(=O)NCC(=O)N3CC(F)(F)C[C@H]3C#N)ccnc12)C(=O)N[C@@H](CCCCN)C(=O)O [Compound 10]
- IC50 (human FAP; [2]): 4.38 nM

SMILES: CN(C)C(=N)NCCC[C@H](NC(=O)CCC(=O)Nc1cccc2c(C(=O)NCC(=O)N3CC(F)(F)C[C@H]3C#N)ccnc12)C(=O)N[C@@H](Cc1ccccc1)C(=O)N[C@@H](CCCCN)C(=O)O [Compound 11]
- FAP inhibition potency (in words) (human FAP): picomolar range
- IC50 (human FAP; [2]): 0.156 nM

SMILES: N#C[C@@H]1CC(F)(F)CN1C(=O)CNC(=O)c1ccnc2c(NC(=O)CCC(=O)N[C@@H](CCCNC(=N)N)C(=O)N[C@@H](Cc3ccccc3)C(=O)N[C@@H](CCCCN)C(=O)O)cccc12 [Compound 14]
- improvement of potency over the lead compound on replacing propargylglycine with S-phenylalanine (human FAP; L-arginine building block (R=H)): ~2 folds
- IC50 (human FAP; [2]): 0.353 nM

SMILES: N#C[C@@H]1CC(F)(F)CN1C(=O)CNC(=O)c1ccnc2c(NC(=O)CCC(=O)N[C@@H](CCCNC(=N)N)C(=O)N[C@H](Cc3ccccc3)C(=O)N[C@@H](CCCCN)C(=O)O)cccc12 [Compound 15]
- IC50 (human FAP; [2]): 604 nM

SMILES: CC(C)[C@H](NC(=O)[C@H](CCCNC(=N)N)NC(=O)CCC(=O)Nc1cccc2c(C(=O)NCC(=O)N3CC(F)(F)C[C@H]3C#N)ccnc12)C(=O)N[C@@H](CCCCN)C(=O)O [Compound 16]
- IC50 (human FAP; [2]): 1.66 nM

SMILES: CC(C)[C@@H](NC(=O)[C@H](CCCNC(=N)N)NC(=O)CCC(=O)Nc1cccc2c(C(=O)NCC(=O)N3CC(F)(F)C[C@H]3C#N)ccnc12)C(=O)N[C@@H](CCCCN)C(=O)O [Compound 17]
- IC50 (human FAP; [2]): 0.697 nM

SMILES: C[C@H](NC(=O)[C@H](CCCNC(=N)N)NC(=O)CCC(=O)Nc1cccc2c(C(=O)NCC(=O)N3CC(F)(F)C[C@H]3C#N)ccnc12)C(=O)N[C@@H](CCCCN)C(=O)O [Compound 18]
- IC50 (human FAP; [2]): 1.54 nM

SMILES: C[C@@H](NC(=O)[C@H](CCCNC(=N)N)NC(=O)CCC(=O)Nc1cccc2c(C(=O)NCC(=O)N3CC(F)(F)C[C@H]3C#N)ccnc12)C(=O)N[C@@H](CCCCN)C(=O)O [Compound 19]
- IC50 (human FAP; [2]): 0.991 nM

SMILES: CN(C)C(=N)NCCC[C@H](NC(=O)CCC(=O)Nc1cccc2c(C(=O)NCC(=O)N3CC(F)(F)C[C@H]3C#N)ccnc12)C(=O)N[C@@H](Cc1ccccc1)C(=O)NCCNC(=O)OC(C)(C)C [Compound 26]
- IC50 (human FAP; [2]): 0.0748 nM

SMILES: CN(C)C(=N)NCCC[C@H](NC(=O)CCC(=O)Nc1cccc2c(C(=O)NCC(=O)N3CC(F)(F)C[C@H]3C#N)ccnc12)C(=O)N[C@@H](Cc1ccccc1)C(=O)NCCN [Compound 27]
- IC50 (human FAP; [2]): 1.02 nM

SMILES: CN(C)C(=N)NCCC[C@H](NC(=O)CCC(=O)Nc1cccc2c(C(=O)NCC(=O)N3CC(F)(F)C[C@H]3C#N)ccnc12)C(=O)N[C@@H](Cc1ccccc1)C(=O)NCCNC(=S)Nc1ccc2c(c1)C(=O)OC21c2ccc(O)cc2Oc2cc(O)ccc21 [Compound 29]
- binding on wild-type (FAP-negative) cells, flow cytometry (FAP negative SKRC-52.wt): no binding
- staining of FAP-positive cells, flow cytometry [1]: stained
- internalization, confocal microscopy (SK-RC-52.hFAP cells): Internalization was not observed
- staining pattern, confocal microscopy (SK-RC-52.hFAP cells): Membrane-specific staining

SMILES: C#CC[C@H](NC(=O)[C@H](CCCNC(=N)N(C)C)NC(=O)c1coc(CNC(=O)CCC(=O)N2CC(F)(F)C[C@H]2C#N)c1)C(=O)N[C@@H](CCCCNC(=S)Nc1ccc2c(c1)C(=O)OC21c2ccc(O)cc2Oc2cc(O)ccc21)C(=O)O [Compound 36]
- binding on wild-type (FAP-negative) cells, flow cytometry (FAP negative SKRC-52.wt): no binding
- staining of FAP-positive cells, flow cytometry [1]: stained
- internalization, confocal microscopy (SK-RC-52.hFAP cells): Internalization was not observed
- staining pattern, confocal microscopy (SK-RC-52.hFAP cells): Membrane-specific staining

SMILES: N#C[C@@H]1CC(F)(F)CN1C(=O)CN [reference compound]
- IC50 (human FAP; [2]): 24100 nM
